Reference: patent US20160022762A1, “Agent for Eliminating Multidrug Resistance” (priority 2008, published 2016)
“Also recorded” adds a separate entry of the source. Each block holds one compound with its values, some of them ahead of it. Peptide text beside a SMILES is read from it.

Experiments:
[1] = solubility of the active principle; assay type: physicochemical
[2] = test system: multidrug resistance proteins in the Hep-2 cells; test: calcein formation rate in Hep-2 cells with Co2+ ions; assay type: cell-based, human; set-up: calcein formation rate increment ratio: dose or concentration left out as unconfirmed; conditions: Co2+ ions present
[3] = test system: human laryngeal cancer cells Hep-2; test: survival of Hep-2 cells exposed to arsenate (crystal violet); assay type: cell-based
Method: The human laryngeal cancer cells Hep-2 in Dulbecco's modified Eagle's medium (hereinafter referred to as DMEM) (Sigma) supplemented with 10% foetal calf serum (Sigma) and 40 μg/ml of gentamycin (Sigma) were sown in a 96-well culture plate, 0.1 ml per well, at a concentration of 50,000/ml, followed by adding the agents being examined and incubating for 72 hour at 37° C. in an atmosphere of 5% CO2 in air. After incubation, the cells were stained with 0.02% crystal violet solution (Sigma) in 20% ethanol for 10 minutes followed by discarding the stainer solution, washing the cells with water and adding a 0.1% SDS solution for the extraction of the stainer from the cells. The optical density was measured at 570 nm on the spectrophotometer Multiscan Plus. The effect was determined by the formula: No/Nk=(Do−D)/(Dk−D) 100%, where Do, Dk, D are optical densities in the experiment, control, and the background one, respectively, and No/Nk is the cell survival rate: the number of the live cells in the experiment in relation to the control.

Hep-2 cells = test: growth of Hep-2 tumour cells (trypan blue count); assay type: cell-based, human; conditions: 1 μg/ml, three days
Method: Human laryngeal cancer cells Hep-2 in DMEM medium supplemented with 10% foetal calf serum and 40 μg/ml gentamycin were inoculated in 2-ml penicillin-containing vials, 200 thousand per each vial. The hexapeptide at a dose of 1 μg/ml was added 3 hours after cell inoculation (when they had already adhered to glass) and left in the medium for the whole period of incubation. Three days after inoculation, the cells were detached from glass with trypsin, followed by calculating the number of the living cells: unstained with a 0.04% solution of trypan blue.

local irritating effect = conditions: in vivo
[4] = preclinical and clinical studies: toxic reaction and side effects; assay type: in vivo
[5] = test system: stage III cervical carcinoma; test: clinical case, chemoradiotherapy with hexapeptide (Example 5); assay type: in vivo, human
Method: Patient. Clinical diagnosis: stage III cervical carcinoma (T3NX-1M0). Examination of the patient included clinical and laboratory assessment both at admission and during treatment. […] general condition was of moderate severity. […] The percentage of CD3, CD4, CD8, CD16-positive cells was decreased relative to the average statistical normal values 2-fold. The person prior to antineoplastic treatment had received a course of 5-time administration of the hexapeptide in the form of 1 ml of 0.005% solution subcutaneously daily for 5 days. Chemoradiotherapy was carried out according to the regimen: 500 mg of 5-fluorouracil (total dose 2,500 mg). During the whole course of chemoradiotherapy, the person received 1 ml of 0.005% solution of the hexapeptide (biopoetin) 5 times daily. Two days after discontinuation of 5-fluorouracil, the patient underwent remote irradiation at a single dose of 4 Gy on the background of intravenous administration of 30 mg of cysplastin for 3 days (total dose of cysplastin amounting to 90 mg). Then radiotherapy was continued in the mode of a daily multifractionated dose. Irradiation was carried out up to a focal dose of 20 Gy onto the area of the primary focus and zones of regional metastatic spreading, followed by additional intracavitary gamma-therapy (10 fractions 5 Gy each) and remote irradiation was continued onto the zones of parametrial metastatic spreading up to the total dose amounting to 44 Gy.

[6] = test system: stage III oesophageal cancer; assay type: in vivo, human
Method: Clinical diagnosis: stage III oesophageal cancer (T3-4N0-2MOP3). At admission, the patient's general condition of moderate severity. The laboratory indices of the total blood count without pronounced alterations. Noted was a considerable disbalance of the indices of the oxidative-antioxidative system on the background moderate-degree immunosuppression. The state of the oxidative-antioxidative system in the patients was assessed by intensity of lipid peroxidation via measuring blood serum concentration of malonic dialdehyde (MDA, μmol/L) and endogenous antioxidants: lactoferrin (LF, mg/L), caeruloplasmin (CP, conventional units), and the antioxidant enzyme catalase (CAT, conventional units). The analysis of percentage content of the main subpopulations of T-lymphocytes was carried out to superficial receptors of CD3 (T-lymphocytes), CD4 (T-helpers/inducers), CD8 (T-suppressors/cytotoxic lymphocytes), CD16 (natural killers), CD25 (activated lymphocytes expressing the receptor to interleukin-2), CD72 (B-lymphocytes). […] At the same time, the indices of the lymphocytic link were virtually within the normal values. Since CP and LF are proteins of the acute phase of inflammation, an increase in the blood serum reflected the presence of an inflammatory process accompanying the development of oesophageal cancer. Prior to chemoradiotherapy, the patient received intramuscular administration of the hexapeptide daily at a single dose of 1 ml of 0.1% solution 5 times a day for 5 days. Comprehensive chemoradiotherapy was carried out according to the following regimen: 750 mg of 5-fluorouracil (5-FU) was administered intravenously for 5 days (total dose 3,750 mg), two days after the end of administration of 5-FU, the patients was irradiated according to the regimen of dynamic fractionation of the dose at a single dose of 4 Gy on the background of intravenous administration of cysplastin at a dose of 30 mg for 3 days (total dose of cysplastin 90 mg, total focal dose 12 Gy). During the whole period of chemoradiotherapy, the patients was given hexapeptide at a single dose of 100 μg twice daily (in the morning and evening). Commencing from day 11, radiotherapy was continued in the mode of the classical fractionated dose, with the single dose equalling 2 Gy (total focal dose 40 Gy).

[7] = test system: squamous-cell oesophageal cancer; assay type: in vivo, human
Method: The disease was manifested by retrosternal pain, weakness, weight loss. […] Prior to chemoradiotherapy, the patient was given the hexapeptide in the form of a suppository at a dose of 5 mg five times daily for 5 days. The first stage of combined-modality treatment consisted of two courses of polychemotherapy. During the whole period of chemoradiotherapy, the patient received treatment with the proposed agent in the form of rectal suppositories 5 μg twice daily (in the morning and evening).

breast cancer T4cN2M0 = test: clinical case, radiotherapy and CMF polychemotherapy with hexapeptide intranasal spray (Example 8); assay type: in vivo, human
Excerpt: Onto the area of the left breast from two tangential opposed fields and with the figured field onto the zones of regional lymph outflow on the left radiotherapy was begun using linear accelerator (LU-20-SL with the deceleration-radiation energy of 6 MeV) in the mode of average dose fractionating, at 3 Gy daily 5 times a week onto the area of the tumour up to the total focal dose (TFD) 45 Gy equivalent to the mode of the conventional fractionation consisting of 2 Gy a day, with TFD 60 Gy, and onto the zones of regional lymph outflow on the left (supraclavicular, subclavicular, axillary and parasternal sites) at a single dose of 3 Gy up to the TFD 33-36 Gy equivalent to 44-48 Gy of the conventional fractionation.
The patient's state after the irradiation course was satisfactory, with the tumour ulceration being at the scarring stage and virtually no discharge. Two weeks later, polychemotherapy was begun according to the CMF regimen carried out for 4 weeks once a week. During 5 days prior to commencing chemotherapy, the person daily received the hexapeptide in the form of an intranasal dosed spray […] at a single dose of 100 μg. The CMF regimen included intravenous drip administration of 1 g of 5-fluorouracil and 40 mg of methotrexate and intramuscular administration of 1 g cyclophosphane. During polychemotherapy, the patients daily received the hexapeptide in the form of an intranasal dosed spray, with the single dose equalling 100 μg.
A repeat course of CMF. The patient received intravenously 40 mg of methotrexate and 1 g of 5-fluorouracil and intramuscularly 1 g of cyclophosphane. The state after polychemotherapy was satisfactory. A cicatrix formed on the site of the previous breast ulceration. Regional lymph nodes were not perceived, the breast was soft to the touch, with no fresh infiltrates. On the mammograms, the tumour node as compared with the findings of mammography obtained at the beginning of treatment had decreased to 5 mm in diameter. Then sequentially a course of polychemotherapy was carried out according to the same regimen and in the same doses. During 5 days prior to commencing chemotherapy, the patient daily received hexapeptide in the form of an intranasal dosed spray 5 times a day at a single does of 100 μg. During polychemotherapy, the patient daily received hexapeptide in the form of an intranasal dosed spray 5 times a day at a single does of 100 μg.

[8] = in vivo
[9] = test system: multidrug resistance-associated transport proteins in Hep-2 cells; test: rhodamine 123 efflux rate from Hep-2 cells
Method: While studying the effect of the inhibitors on the release of Rh123, to the cuvette after several minutes of the normal excretion of the stainer we added the inhibitor in the required concentration. Determining the control and inhibited constants of rhodamine excretion rates on one plate decreases the error of determining their ratio, necessary for obtaining the R value. […] The total amount of rhodamine in the cells was determined by the difference of the fluorescence levels after adding digitonin and before adding cells to the cuvette. The relative amount of Rh123 in the cells (N) was determined according to the following formula: N=1−{It−I0/Imax−I0}, where It, I0, Imax are the values of fluorescence of Rh123 in the medium at the time moments t, 0 and the peak fluorescence after adding digitonin, respectively.
The effect of each concentration of the agents on Rh123 excretion was determined in several experiments.

MRP [10] = molecular target: T1, MRP (Mus musculus, UniProt O35379); test: calcein efflux rate from preliminarily calcein-loaded R388VR cells
T1 sequence (O35379 whole entry): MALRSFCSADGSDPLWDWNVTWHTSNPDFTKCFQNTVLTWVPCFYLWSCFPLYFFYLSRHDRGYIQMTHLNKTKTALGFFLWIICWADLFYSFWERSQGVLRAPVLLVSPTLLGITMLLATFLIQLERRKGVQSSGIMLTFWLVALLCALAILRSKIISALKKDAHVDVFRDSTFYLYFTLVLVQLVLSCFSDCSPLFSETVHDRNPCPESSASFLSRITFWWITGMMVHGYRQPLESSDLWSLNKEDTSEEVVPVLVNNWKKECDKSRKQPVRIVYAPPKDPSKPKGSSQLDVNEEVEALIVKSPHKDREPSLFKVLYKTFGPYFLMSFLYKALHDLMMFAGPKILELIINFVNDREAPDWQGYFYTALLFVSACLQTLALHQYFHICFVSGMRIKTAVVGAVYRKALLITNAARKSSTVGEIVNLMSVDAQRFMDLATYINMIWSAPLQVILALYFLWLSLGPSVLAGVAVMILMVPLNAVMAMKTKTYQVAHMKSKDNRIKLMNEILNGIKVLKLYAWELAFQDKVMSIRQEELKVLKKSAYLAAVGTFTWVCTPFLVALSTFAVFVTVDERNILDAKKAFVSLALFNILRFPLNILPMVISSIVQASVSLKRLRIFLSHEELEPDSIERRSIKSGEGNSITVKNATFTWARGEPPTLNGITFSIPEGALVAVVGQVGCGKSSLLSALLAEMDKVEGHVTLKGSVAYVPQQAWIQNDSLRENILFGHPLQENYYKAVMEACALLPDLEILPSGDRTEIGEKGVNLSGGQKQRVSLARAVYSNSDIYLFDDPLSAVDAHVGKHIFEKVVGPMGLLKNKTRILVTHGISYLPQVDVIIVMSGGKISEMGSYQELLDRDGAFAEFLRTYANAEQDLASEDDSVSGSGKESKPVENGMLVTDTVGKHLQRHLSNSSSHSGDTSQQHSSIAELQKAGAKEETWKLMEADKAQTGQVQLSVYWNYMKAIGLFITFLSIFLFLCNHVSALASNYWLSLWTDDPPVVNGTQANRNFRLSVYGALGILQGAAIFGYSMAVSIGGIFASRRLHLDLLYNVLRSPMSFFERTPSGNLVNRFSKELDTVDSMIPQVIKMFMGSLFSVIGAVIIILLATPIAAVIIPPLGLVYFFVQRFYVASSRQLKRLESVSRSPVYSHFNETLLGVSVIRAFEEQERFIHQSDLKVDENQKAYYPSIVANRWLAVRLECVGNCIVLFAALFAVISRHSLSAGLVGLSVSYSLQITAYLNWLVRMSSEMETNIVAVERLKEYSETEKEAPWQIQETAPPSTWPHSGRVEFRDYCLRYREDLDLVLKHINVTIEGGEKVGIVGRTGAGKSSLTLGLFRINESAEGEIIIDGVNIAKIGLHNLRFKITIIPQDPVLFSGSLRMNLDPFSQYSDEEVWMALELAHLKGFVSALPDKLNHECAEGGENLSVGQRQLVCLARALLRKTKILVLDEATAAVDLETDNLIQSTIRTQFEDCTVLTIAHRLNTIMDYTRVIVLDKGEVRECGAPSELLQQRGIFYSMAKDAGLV

P-gp = test: calcein formation rate from calcein AM in R388VR cells without Co2+; conditions: up to 1.2 μM
Excerpt: The rate of calcein formation in the dish with calcein AM added without Co2+ ions makes it possible to determine the activity of the transport proteins expelling calcein AM out of cells, rather than that of the proteins capable of transporting calcein from the cells (MRP), since in this case total calcein is registered: both intra- and extracellular.

MRP [11] = molecular target: T1, MRP; test: calcein formation rate in R388VR cells in the presence of Co2+ (extracellular calcein quenching); conditions: presence of Co, 12 μM
tumour cells = conditions: calcium channel blocker; cited from earlier work

solubility in alcohol ([1]; alcohol): not alcohol- or chloroform-soluble
solubility in chloroform ([1]; chloroform): not alcohol- or chloroform-soluble
solubility in isotonic sodium chloride solution ([1]; isotonic sodium chloride solution): readily soluble
solubility in water ([1]; water): readily soluble
effect on growth of Hep-2 tumour cells (Hep-2 cells): virtually does not influence the growth
indices of immunity and total blood count after chemoradiotherapy [5]: did not virtually alter
indices of natural cellular and T-lymphocytic immunity, acute inflammation phase proteins ([6]; human, in vivo): did not alter substantially
decrease of calcein excretion rate (MRP [10]; 1.2 nM): 1.5 fold
calcein excretion rate inhibition ratio (MRP [10]; 120 nM): 2.6
increase of calcein formation rate (MRP [11]): double
Compound: NCCCC[C@H](NC(=O)CNC(=O)[C@H](Cc1c[nH]cn1)NC(=O)[C@@H](N)CCCCN)C(=O)N[C@@H](Cc1c[nH]cn1)C(=O)NCC(=O)O [hexapeptide, lysyl-histidyl-glycyl-lysyl-histidyl-glycine] (H-KHGKHG-OH)
calcein formation rate increment ratio [2]: 2.6
increase of rate of calcein formation in cells ([2]; 1.2 nM): twofold
increase in sensitivity of Hep-2 cells to arsenate ([3]; 1.2 nM): 3 fold
effect on sensitivity to arsenate and survival of Hep-2 cells ([3]; 50 μM arsenate): increases sensitivity of the tumour cells to the cytostatic preparation arsenate and inhibits survival of the Hep-2 cells
local irritating effect (local irritating effect): no local irritating effect
allergic activity (allergic activity): neither allergic nor mutagenic activity
mutagenic activity (mutagenic activity): neither allergic nor mutagenic activity
toxic reaction and side effects [4]: neither induces a pronounced toxic reaction nor leads to development of side effects
MDR development [5]: No events of MDR development were observed
tumour outcome [5]: complete resorption of the tumour
side reactions during chemoradiotherapy ([5]; 1 ml of 0.005% solution subcutaneously): No pronounced side reactions were observed
disease relapses ([6]; 12-month follow-up): no disease relapses
symptoms of MDR ([6]; with chemoradiotherapy): No symptoms of MDR were observed
tumour outcome ([6]; with chemoradiotherapy): complete resorption of the tumour
tumour at check-up examinations ([7]; after polychemotherapy): no oesophageal tumour perceived
metastases into lymph nodes ([7]; histology of subtotal oesophageal resection): No metastases into lymph nodes were detected
manifestations of toxicosis during polychemotherapy ([7]; human, in vivo): No markedly pronounced manifestations of toxicosis were observed
development of MDR (breast cancer T4cN2M0; 5th course of CMF): No development of MDR was noted
tumour node diameter on mammograms (breast cancer T4cN2M0; after repeat course of CMF): 5 mm
tumour node size on mammograms (breast cancer T4cN2M0; before fourth course of polychemotherapy): 3.8 cm
relapse or metastases at examination (breast cancer T4cN2M0; clinical and roentgenological study, check-up 15 months after the beginning of treatment): no findings suggesting either a breast tumour relapse or metastases; also recorded: no signs of the disease's relapses
tolerance of chemoradiotherapy / polychemotherapy (breast cancer T4cN2M0; intranasal dosed spray, CMF regimen): tolerated chemoradiotherapy satisfactorily; also recorded: well tolerated
death of laboratory animals after a single dose [8]: caused no death
optimal concentration of maximal inhibition of Rh123 excretion [9]: 1 ng/mL
R value (Rh123 excretion inhibition) ([9]; 1 ng/ml): 3.2
effect on calcein formation rate (P-gp): does not act upon the calcein formation rate

Compound: COc1ccc(CCN(C)CCCC(C#N)(c2ccc(OC)c(OC)c2)C(C)C)cc1OC (stereo not shown) [verapamil]
dose exhibiting in vitro MDR inhibiting activity (tumour cells): approximately 10 μM
